Experimental data published in DBAASP.
In brackets after ≈: the same amount, converted by molar mass.

Tests used:
Assay in all cases: ≥ marks a high value that may be exact or a test limit, other limits are often not marked, values filed in µg/mL are converted to µM
[1] = system: Escherichia coli ATCC 25922
[2] = system: Staphylococcus aureus ATCC 25923
[3] = system: Candida albicans NCTC 3179
[4] = system: Streptococcus pyogenes GAS M1T1
Escherichia coli BL21 = system: Escherichia coli BL21
[5] = system: Pseudomonas aeruginosa PAO1
[6] = system: Xanthomonas axonopodis pv. phaseoli ATCC 9563
Pseudomonas syringae = system: Pseudomonas syringae
[7] = system: Staphylococcus aureus ATCC 29213
[8] = system: Pseudomonas aeruginosa ATCC 27853
[9] = system: Bacillus subtilis CMCC 63501
[10] = system: Salmonella typhimurium ATCC 7731
[11] = system: Staphylococcus epidermidis ATCC 12228
[12] = system: Staphylococcus aureus ATCC 43300
[13] = system: Salmonella enterica subsp. enterica serovar Pullorum C79-13
[14] = system: Enterococcus faecalis ATCC 29212
Escherichia coli UB1005 = system: Escherichia coli UB1005
[15] = system: Salmonella enterica subsp. enterica serovar Choleraesuis CVCC 503
[16] = system: Lacticaseibacillus rhamnosus 1.0911
Escherichia coli K88 = system: Escherichia coli K88
[17] = system: Streptococcus agalactiae BNCC 185941
[18] = system: Lacticaseibacillus rhamnosus 1.0936
[19] = system: Lacticaseibacillus rhamnosus 1.9021
[20] = system: Escherichia coli O157:H7 CICC 21530
[21] = system: Lacticaseibacillus rhamnosus 8014
[22] = system: Salmonella enterica subsp. enterica serovar Typhimurium ATCC 14028
[23] = system: Candida tropicalis CGMCC 2.1975
Candida albicans = system: Candida albicans
Escherichia coli 1005 = system: Escherichia coli 1005
[24] = system: Candida krusei CGMCC 2.1857
[25] = system: Candida parapsilosis CGMCC 2.3989
[26] = system: Salmonella enterica subsp. enterica serovar Pullorum ATCC 7913

CC[C@H](C)[C@H](NC(=O)[C@@H](NC(=O)[C@H](Cc1ccccc1)NC(=O)CNC(=O)[C@@H](NC(=O)[C@H](CC(N)=O)NC(=O)[C@H](C)N)C(C)C)C(C)C)C(=O)N[C@@H](CCC(N)=O)C(=O)N[C@@H](CC(C)C)C(=O)N[C@@H](CCC(N)=O)C(=O)N[C@@H](C)C(=O)N[C@@H](CCCN=C(N)N)C(=O)N[C@@H](CC(C)C)C(=O)N[C@@H](CCCN=C(N)N)C(=O)NCC(=O)N[C@@H](Cc1ccccc1)C(=O)N[C@@H](CC(C)C)C(=O)N[C@H](C(=O)N[C@@H](CCCN=C(N)N)C(=O)N[C@@H](CCC(N)=O)C(=O)N[C@@H](CCCCN)C(=O)N[C@@H](Cc1ccccc1)C(=O)N[C@@H](C)C(=O)O)C(C)C [ANVGFVIQLQARLRGFLVRQKFA]
MIC [1]: 1.71 µM (≈ 4.5 µg/mL)
MIC [2]: 1.71 µM (≈ 4.5 µg/mL)
MIC [3]: ≥ 95 µM

CC[C@H](C)[C@H](NC(=O)[C@H](CCCCN)NC(=O)[C@H](CC(N)=O)NC(=O)[C@H](CCCCN)NC(=O)[C@H](CC(C)C)NC(=O)[C@H](Cc1ccc(O)cc1)NC(=O)[C@H](CCC(N)=O)NC(=O)[C@H](CCCN=C(N)N)NC(=O)[C@@H](NC(=O)[C@@H](NC(=O)[C@H](CCCCN)NC(=O)[C@H](CCCCN)NC(=O)[C@H](Cc1c[nH]c2ccccc12)NC(=O)[C@H](C)N)[C@@H](C)O)[C@@H](C)CC)C(=O)N[C@@H](CCCCN)C(=O)N[C@@H](CCCCN)C(=O)N[C@@H](CCCCN)C(=O)NCC(=O)N[C@@H](CCCN=C(N)N)C(=O)N[C@@H](CCCCN)C(=O)N[C@@H](C)C(=O)N[C@H](C(=O)N[C@H](C(=O)N[C@@H](C)C(=O)N[C@@H](Cc1c[nH]c2ccccc12)C(=O)O)[C@@H](C)CC)C(C)C [AWKKTIRQYLKNKIKKKGRKAVIAW]
MIC [4]: 8 µM (≈ 24.5 µg/mL)
MIC (Escherichia coli BL21): 8 µM (≈ 24.5 µg/mL)
MIC [5]: 10 µM (≈ 30.6 µg/mL)
MIC [6]: 1 µM (≈ 3.06 µg/mL)
MIC (Pseudomonas syringae): 8 µM (≈ 24.5 µg/mL)

CC[C@H](C)[C@H](NC(=O)[C@H](CCCCN)NC(=O)[C@H](CC(N)=O)NC(=O)[C@H](CCCCN)NC(=O)[C@H](CC(C)C)NC(=O)[C@H](Cc1ccc(O)cc1)NC(=O)[C@H](CCC(N)=O)NC(=O)[C@H](CCCN=C(N)N)NC(=O)[C@@H](NC(=O)[C@@H](NC(=O)[C@H](CCCCN)NC(=O)[C@H](CCCCN)NC(=O)[C@H](Cc1c[nH]c2ccccc12)NC(=O)[C@H](C)N)[C@@H](C)O)[C@@H](C)CC)C(=O)N[C@@H](CCCCN)C(=O)N[C@@H](CCCCN)C(=O)N[C@@H](CCCCN)C(=O)N[C@@H](Cc1c[nH]c2ccccc12)C(=O)N[C@@H](CCCN=C(N)N)C(=O)N[C@@H](CCCCN)C(=O)N[C@@H](C)C(=O)N[C@H](C(=O)N[C@H](C(=O)N[C@@H](C)C(=O)N[C@@H](Cc1c[nH]c2ccccc12)C(=O)O)[C@@H](C)CC)C(C)C [AWKKTIRQYLKNKIKKKWRKAVIAW]
MIC [4]: 8 µM (≈ 25.5 µg/mL)
MIC (Escherichia coli BL21): 4 µM (≈ 12.7 µg/mL)
MIC [6]: 1 µM (≈ 3.19 µg/mL)
MIC (Pseudomonas syringae): 8 µM (≈ 25.5 µg/mL)

CC[C@H](C)[C@H](N)C(=O)N[C@@H](Cc1cnc[nH]1)C(=O)N[C@@H](CCCCN)C(=O)N[C@@H](Cc1ccccc1)C(=O)N[C@@H](Cc1c[nH]c2ccccc12)C(=O)N[C@@H](CCCN=C(N)N)C(=O)N[C@@H](CCCN=C(N)N)C(=O)N[C@@H](Cc1c[nH]c2ccccc12)C(=O)N[C@@H](Cc1ccccc1)C(=O)N[C@@H](CCCCN)C(=O)N[C@@H](Cc1cnc[nH]1)C(=O)N[C@H](C(N)=O)[C@@H](C)CC [IHKFWRRWFKHI]
MIC [7]: 8 µM (≈ 14 µg/mL)
MIC [8]: 16 µM (≈ 28.1 µg/mL)
MIC [1]: 16 µM (≈ 28.1 µg/mL)
MIC [9]: ≥ 32 µM
MIC [10]: 16 µM (≈ 28.1 µg/mL)
MIC [11]: 16 µM (≈ 28.1 µg/mL)
MIC [12]: 16 µM (≈ 28.1 µg/mL)
MIC [13]: 16 µM (≈ 28.1 µg/mL)
MIC [14]: 16 µM (≈ 28.1 µg/mL)
MIC (Escherichia coli UB1005): 8 µM (≈ 14 µg/mL)

CC(C)C[C@H](NC(=O)[C@H](Cc1c[nH]c2ccccc12)NC(=O)[C@H](CC(C)C)NC(=O)[C@@H](NC(=O)[C@H](CC(C)C)NC(=O)[C@H](CCCCN)NC(=O)[C@@H](N)CCCCN)[C@@H](C)O)C(=O)N[C@H](C(=O)N[C@@H](CC(C)C)C(=O)N[C@@H](CCCCN)C(=O)N[C@@H](CCCCN)C(N)=O)[C@@H](C)O [KKLTLWLTLKK]
MIC [7]: 32 µM (≈ 43.9 µg/mL)
MIC [15]: 8 µM (≈ 11 µg/mL)
MIC [8]: 8 µM (≈ 11 µg/mL)
MIC [16]: 16 µM (≈ 21.9 µg/mL)
MIC [11]: 32 µM (≈ 43.9 µg/mL)
MIC [12]: 32 µM (≈ 43.9 µg/mL)
MIC [5]: 16 µM (≈ 21.9 µg/mL)
MIC (Escherichia coli K88): 2 µM (≈ 2.74 µg/mL)
MIC [17]: ≥ 128 µM
MIC [18]: ≥ 32 µM
MIC [19]: ≥ 32 µM
MIC [20]: 8 µM (≈ 11 µg/mL)
MIC [13]: 2 µM (≈ 2.74 µg/mL)
MIC [21]: ≥ 128 µM
MIC [22]: 128 µM (≈ 175 µg/mL)

CC[C@H](C)[C@H](NC(=O)[C@H](CCCCN)NC(=O)[C@@H](NC(=O)[C@@H](NC(=O)[C@H](CO)NC(=O)[C@H](CC(N)=O)NC(=O)[C@@H](NC(=O)[C@H](CC(N)=O)NC(=O)[C@@H](N)CCCCN)C(C)C)[C@@H](C)CC)C(C)C)C(=O)N[C@@H](CCC(N)=O)C(=O)N[C@@H](C)C(=O)N[C@@H](Cc1ccccc1)C(=O)N[C@@H](Cc1ccccc1)C(=O)N[C@@H](CCCN=C(N)N)C(=O)N[C@@H](C)C(=O)N[C@@H](CCCN=C(N)N)C(=O)N[C@@H](CCCCN)C(=O)N[C@@H](C)C(=O)N[C@@H](CCC(N)=O)C(=O)N[C@@H](CC(=O)O)C(=O)N[C@@H](CC(=O)O)C(=O)N[C@@H](Cc1ccc(O)cc1)C(=O)N[C@@H](CCCN=C(N)N)C(=O)O [KNVNSIVKIQAFFRARKAQDDYR]
MIC [1]: 3.54 µM (≈ 9.8 µg/mL)
MIC [2]: 4.7 µM (≈ 13 µg/mL)
MIC [3]: 30.3 µM (≈ 84 µg/mL)

NC(=O)[C@H](CCCN=C(N)N)NC(=O)[C@H](Cc1ccccc1)NC(=O)[C@H](Cc1ccccc1)NC(=O)[C@H](CCCN=C(N)N)NC(=O)[C@H](CCCN=C(N)N)NC(=O)[C@H](Cc1ccccc1)NC(=O)[C@H](CCCN=C(N)N)NC(=O)[C@H](CCCN=C(N)N)NC(=O)[C@H](Cc1ccccc1)NC(=O)[C@H](Cc1ccccc1)NC(=O)[C@@H](N)CCCN=C(N)N [RFFRRFRRFFR]
MIC [7]: 8 µM (≈ 13.5 µg/mL)
MIC [23]: 2 µM (≈ 3.38 µg/mL)
MIC (Candida albicans): 5.66 µM (≈ 9.56 µg/mL)
MIC [11]: 4 µM (≈ 6.76 µg/mL)
MIC [12]: 4 µM (≈ 6.76 µg/mL)
MIC (Escherichia coli 1005): 8 µM (≈ 13.5 µg/mL)
MIC [2]: 4 µM (≈ 6.76 µg/mL)
MIC [24]: 2 µM (≈ 3.38 µg/mL)
MIC [22]: 4 µM (≈ 6.76 µg/mL)
MIC [25]: ≥ 64 µM
MIC [26]: 4 µM (≈ 6.76 µg/mL)

CC(C)C[C@H](NC(=O)[C@H](CC(C)C)NC(=O)[C@H](CCCN=C(N)N)NC(=O)[C@H](CCCN=C(N)N)NC(=O)[C@H](CC(C)C)NC(=O)[C@H](CCCN=C(N)N)NC(=O)[C@H](CCCN=C(N)N)NC(=O)[C@H](CC(C)C)NC(=O)[C@H](CC(C)C)NC(=O)[C@@H](N)CCCN=C(N)N)C(=O)N[C@@H](CCCN=C(N)N)C(N)=O [RLLRRLRRLLR]
MIC [7]: 4 µM (≈ 6.08 µg/mL)
MIC [23]: 2 µM (≈ 3.04 µg/mL)
MIC (Candida albicans): 5.66 µM (≈ 8.6 µg/mL)
MIC [11]: 4 µM (≈ 6.08 µg/mL)
MIC [12]: 8 µM (≈ 12.2 µg/mL)
MIC (Escherichia coli 1005): 4 µM (≈ 6.08 µg/mL)
MIC [2]: 8 µM (≈ 12.2 µg/mL)
MIC [24]: 4 µM (≈ 6.08 µg/mL)
MIC [22]: 8 µM (≈ 12.2 µg/mL)
MIC [25]: 8 µM (≈ 12.2 µg/mL)
MIC [26]: 8 µM (≈ 12.2 µg/mL)
